For 35 compounds, cytotoxicity results are on record in US9447083B2, “N-acylhydrazone derivatives for selective T cell inhibitor and anti-lymphoid malignancy drug” (CHONG KUN DANG PHARMACEUTICAL CORP., priority 2012, dated 2016).

Molecules are shown by their SMILES.

The first assay relates to Jurkat T cells. Briefly: Pro-apoptotic activity on Jurkat T cells (FITC-Annexin V / 7-AAD flow cytometry). The class given is cell-based. As to conditions: Homo sapiens, 72 hours, cells stained with FITC-Annexin V and 7-AAD among total cells, read-out: Cell Apoptosis Effect to Jurkat T Cell (% in 5 μM). As to the method: In order to investigate the effects of the prepared compounds, the apoptosis-inducing effects of the compounds on human T cell acute lymphoblastic leukemia cell line, Jurkat T cells, were evaluated in the following manner.
Jurkat T cells cultured in RPMI medium containing 10% fetal bovine serum (FBS) were collected and stained with trypan blue (Sigma). […] Then, the cells were centrifuged at 1200 rpm at room temperature for 5 minutes and re-suspended in 10% FBS-containing RPMI medium at a concentration of 1.5×10^5 cells/mL. 200 μL of the cell suspension was dispensed into each well of a flat bottom 96-well plate (Costar). Then, the cells were treated with 10 μL of the diluted compounds in RPMI medium at final concentrations of […] or 5 μM, and incubated in a 5% CO2 incubator at 37° C. for 72 hours. In a vehicle control group, the cells were treated with 10 μL of RPMI medium containing 1% of dimetylsulfoxide (DMSO, Sigma). The incubated cells were harvested, put into 5-mL FACS tubes (BD Falcon), washed with 1 mL of phosphate buffered saline (PBS), and then re-suspended in 0.1 mL of binding buffer (10 mM Hepes-NaOH, pH 7.4, 140 mM NaCl, […] CaCl2). The suspended cells were stained with fluorescein isothiocyanate (FITC)-Annexin V (BD Biosciences) and 7-amino-actinomycin D (7-AAD, e-Biosciences) at room temperature for 15 minutes. The stained cells were suspended in 0.3 mL of binding buffer and analyzed by a flow cytometer. Apoptosis was determined by the ratio (%) of cells stained with FITC-Annexin V and 7-AAD among the total cells (see Tables 10 and 11).
On the technique in general: Flow cytometry measures light scatter and fluorescence of single cells or particles in a stream.
For the compound `Cc1cc(C)c(OCC(=O)N/N=C/c2ccc3cc[nH]c3c2)c(-c2cccnc2)c1` [Compound 183, (E)-N′-((1H-indol-6-yl)methylene)-2-(2,4-dimethyl-6-(pyridin-3-yl)phenoxy)acetohydrazide], the cytotoxicity at 5 µM was 100%.
In the case of `Cc1ccccc1OCC(=O)N/N=C/c1cccc2[nH]ccc12` [Compound 013, (E)-N′-((1H-indol-4-yl)methylene)-2-(o-tosyloxy)acetohydrazide], the cytotoxicity at 5 µM was 100%.
Same read-out and setting: the same measure for `Cc1cc(C)c(OCC(=O)N(CCN2CCCC2)/N=C/c2ccc3cc[nH]c3c2)c(C)c1` [Compound 201]: 100%; for `Cc1cc(C)c(SCC(=O)N/N=C/c2cccc3[nH]ccc23)c(C)c1` [Compound 147, (E)-N′-((1H-indol-4-yl)methylene)-2-(mesitylthio)acetohydrazide]: 100%; for `Cc1cc(Br)cc(C)c1OCC(=O)N/N=C/c1ccc2[nH]ccc2c1` [Compound 092, (E)-N′-((1H-indol-5-yl)methylene)-2-(4-bromo-2,6-dimethylphenoxy)acetohydrazide]: 100%.
As for `Cc1cc(C)c(OCC(=O)N/N=C/c2cccc3[nH]cc(CN4CCC(C)CC4)c23)c(C)c1` [Compound 211], the cytotoxicity at 5 µM was determined as 100%.
Same read-out and setting: the same measure for `Cc1cc(C)c(OCC(=O)N/N=C/c2cccc3c2ccn3CCO)c(C)c1` [Compound 180, (E)-N′-((1-(2-hydroxyethyl)-1H-indol-4-yl)methylene)-2-(mesityloxy)acetohydrazide]: 90%; for `CC(=O)OCN(/N=C/c1ccc2cc[nH]c2c1)C(=O)COc1c(C)cc(C)cc1C` [Compound 252, (E)-(2-((1H-indol-6-yl)methylene)-1-(2-(mesityloxy)acetyl)hydrazinyl)methyl acetate]: 100%.
Regarding `Cc1cc(-c2cncnc2)cc(C)c1OCC(=O)N/N=C/c1cccc2[nH]ccc12` [Compound 149, (E)-N′-((1H-indol-4-yl)methylene)-2-(2,6-dimethyl-4-(pyrimidin-5-yl)phenoxy)acetohydrazide], the cytotoxicity at 5 µM came out at 100%.
The same measure, in the same setting: the same measure for `O=C(COc1cccnc1Cl)N/N=C/c1cccc2[nH]ccc12` [Compound 196, (E)-N′-((1H-indol-4-yl)methylene)-2-(2-chloropyridin-3-yloxy)acetohydrazide]: 100%; for `Cc1cc(CO)cc(C)c1OCC(=O)N/N=C/c1cccc2[nH]ccc12` [Compound 227, (E)-N′-((1H-indol-4-yl)methylene)-2-(4-(hydroxymethyl)-2,6-dimethylphenoxy)acetohydrazide]: 90%; for `Cc1cccc(C)c1OCC(=O)N/N=C/c1cccc2[nH]ccc12` [Compound 118, (E)-N′-((1H-indol-4-yl)methylene)-2-(2,6-dimethylphenoxy)acetohydrazide]: 100%.
On the same count and under the same terms, the same measure for `Cc1cc(C#N)cc(C)c1OCC(=O)N/N=C/c1ccc2cc[nH]c2c1` [Compound 237, (E)-N′-((1H-indol-6-yl)methylene)-2-(4-cyano-2,6-dimethylphenoxy)acetohydrazide]: 100%; for `Cc1cc(-c2cccnc2)cc(C)c1OCC(=O)N/N=C/c1cccc2[nH]ccc12` [Compound 137, (E)-N′-((1H-indol-4-yl)methylene)-2-(2,6-dimethyl-4-(pyridin-3-yl)phenoxy)acetohydrazide]: 100%.
The same measure, in the same setting: the same measure for `Cc1cc(-c2cccnc2)cc(C)c1OCC(=O)N/N=C/c1ccc2cc[nH]c2c1` [Compound 139, (E)-N′-((1H-indol-6-yl)methylene)-2-(2,6-dimethyl-4-(pyridin-3-yl)phenoxy)acetohydrazide]: 100%.
As for `Cc1ccccc1OCC(=O)N/N=C/c1ccc2[nH]cnc2c1` [Compound 100], the cytotoxicity at 5 µM was 90%.
`O=C(COc1ccccc1-c1cccnc1)N/N=C/c1cccc2[nH]ccc12` [Compound 146, (E)-N′-((1H-indol-4-yl)methylene)-2-(2-(pyridin-3-yl)phenoxy)acetohydrazide]: the cytotoxicity at 5 µM stood at 100%.
Same read-out and setting: the same measure for `Cc1cc(C)c(OCC(=O)N(CCO)/N=C/c2ccc3cc[nH]c3c2)c(C)c1` [Compound 195, (E)-N′-((1H-indol-6-yl)methylene)-N-(2-hydroxyethyl)-2-(mesityloxy)acetohydrazide]: 100%.

The assay is the same for the next values; noted with them: Homo sapiens, 72 hours, cells stained with FITC-Annexin V and 7-AAD among total cells, read-out: Jurkat T Cell Apoptosis (% in 5 μM).
Regarding `O=C(COc1cccnc1N1CCCC1)N/N=C/c1ccc2cc[nH]c2c1` [Compound 331, (E)-N′-((1H-indol-6-yl)methylene)-2-((2-(pyrrolidin-1-yl)pyridin-3-yl)oxy)acetohydrazide], the cytotoxicity at 5 µM is 100%.
On to `COc1ccc(OCC(=O)N/N=C/c2cccc3[nH]ccc23)c(C(C)(C)C)c1` [Compound 302, (E)-N′-((1H-indol-4-yl)methylene)-2-(2-tert-butyl-4-methoxyphenoxy)acetohydrazide], for which the cytotoxicity at 5 µM stood at 100%.
On to `Cc1cc(-c2ccoc2)cc(C)c1OCC(=O)N/N=C/c1cccc2[nH]ccc12` [Compound 336, (E)-N′-((1H-indol-4-yl)methylene)-2-(4-(furan-3-yl)-2,6-dimethylphenoxy)acetohydrazide], for which the cytotoxicity at 5 µM was found to be 100%.
With `Cc1cccc(C2CCOC2)c1OCC(=O)N/N=C/c1cccc2[nH]ccc12` (centres unmarked) [Compound 312, (E)-N′-((1H-indol-4-yl)methylene)-2-(2-methyl-6-(tetrahydrofuran-3-yl)phenoxy)acetohydrazide], the cytotoxicity at 5 µM came to 100%.
For `Cc1cc(C2CCOC2)cc(C)c1OCC(=O)N/N=C/c1ccc2cc[nH]c2c1` (centres unmarked) [Compound 323, (E)-N′-((1H-indol-6-yl)methylene)-2-(2,6-dimethyl-4-(tetrahydrofuran-3-yl)phenoxy)acetohydrazide], the cytotoxicity at 5 µM was 100%.
Same read-out and setting: the same measure for `Cc1cc(F)cc(C2CCOC2)c1OCC(=O)N/N=C/c1ccc2cc[nH]c2c1` (centres unmarked) [Compound 378, (E)-N′-((1H-indol-6-yl)methylene)-2-(4-fluoro-2-methyl-6-(tetrahydrofuran-3-yl)phenoxy)acetohydrazide]: 100%; for `Cc1cc(C)c(OCC(=O)N(C)/N=C/c2ccc3ccn(C)c3c2)c(C2CCOC2)c1` (centres unmarked) [Compound 375, (E)-2-(2,4-dimethyl-6-(tetrahydrofuran-3-yl)phenoxy)-N-methyl-N′-((1-methyl-1H-indol-6-yl)methylene)acetohydrazide]: 100%; for `Cc1cc(C)c(OCC(=O)N/N=C/c2cccc3[nH]ccc23)c(C2CCOC2)c1` (centres unmarked) [Compound 320, (E)-N′-((1H-indol-4-yl)methylene)-2-(2,4-dimethyl-6-(tetrahydrofuran-3-yl)phenoxy)acetohydrazide]: 100%.
The same measure, in the same setting: the same measure for `Cc1ccccc1OCC(=O)N/N=C/c1ccc2cc[nH]c2c1` [Compound 279]: 100%.
On the same count and under the same terms, the same measure for `Cc1cc(OCC(=O)N/N=C/c2cccc3[nH]ccc23)nc(C)n1` [Compound 301, (E)-N′-((1H-indol-4-yl)methylene)-2-(2,6-dimethylpyrimidin-4-yloxy)acetohydrazide]: 100%; for `Cc1cc(-c2ccoc2)cc(C)c1OCC(=O)N/N=C/c1ccc2cc[nH]c2c1` [Compound 322, (E)-N′-((1H-indol-6-yl)methylene)-2-(4-(furan-3-yl)-2,6-dimethylphenoxy)acetohydrazide]: 100%; for `Cc1cc(F)cc(C2CCOC2)c1OCC(=O)N(C)/N=C/c1ccc2ccn(C)c2c1` (centres unmarked) [Compound 380, (E)-2-(4-fluoro-2-methyl-6-(tetrahydrofuran-3-yl)phenoxy)-N-methyl-N′-((1-methyl-1H-indol-6-yl)methylene)acetohydrazide]: 100%.
`Cc1cc(C)c(OCC(=O)N/N=C/c2ccc3cc[nH]c3c2)c(Br)c1` [Compound 260, (E)-N′-((1H-indol-6-yl)methylene)-2-(2-bromo-4,6-dimethylphenoxy)acetohydrazide]: the cytotoxicity at 5 µM is 100%.
The same measure, in the same setting: the same measure for `Cc1cc(C)c(OCC(=O)N/N=C/c2cccc3[nH]ccc23)c(-c2cccs2)c1` [Compound 344, (E)-N′-((1H-indol-4-yl)methylene)-2-(2,4-dimethyl-6-(thiophen-2-yl)phenoxy)acetohydrazide]: 100%; for `O=C(COc1cccnc1-c1ccoc1)N/N=C/c1cccc2[nH]ccc12` [Compound 319, (E)-N′-((1H-indol-4-yl)methylene)-2-((2-(furan-3-yl)pyridin-3-yl)oxy)acetohydrazide]: 100%.
Still for that read-out and setting: the same measure for `O=C(COc1cccc(-c2ccco2)c1)N/N=C/c1cccc2[nH]ccc12` [Compound 356, (E)-N′-((1H-indol-4-yl)methylene)-2-(3-(furan-2-yl)phenoxy)acetohydrazide]: 90%; for `Cc1cccc(OCC(=O)N/N=C/c2ccc3cc[nH]c3c2)c1C` [Compound 327]: 95%.
